The IC50 is the concentration that inhibits the measured activity by half.

This experiment addresses T1, DPP-IV (Homo sapiens, UniProt P27487).
T1 construct: gene DPP4
In words: fluorogenic AMC substrate cleavage assay (SensoLyte AMC DPP-IV Assay Kit). Format: biochemical.

T1 sequence (P27487 39-766): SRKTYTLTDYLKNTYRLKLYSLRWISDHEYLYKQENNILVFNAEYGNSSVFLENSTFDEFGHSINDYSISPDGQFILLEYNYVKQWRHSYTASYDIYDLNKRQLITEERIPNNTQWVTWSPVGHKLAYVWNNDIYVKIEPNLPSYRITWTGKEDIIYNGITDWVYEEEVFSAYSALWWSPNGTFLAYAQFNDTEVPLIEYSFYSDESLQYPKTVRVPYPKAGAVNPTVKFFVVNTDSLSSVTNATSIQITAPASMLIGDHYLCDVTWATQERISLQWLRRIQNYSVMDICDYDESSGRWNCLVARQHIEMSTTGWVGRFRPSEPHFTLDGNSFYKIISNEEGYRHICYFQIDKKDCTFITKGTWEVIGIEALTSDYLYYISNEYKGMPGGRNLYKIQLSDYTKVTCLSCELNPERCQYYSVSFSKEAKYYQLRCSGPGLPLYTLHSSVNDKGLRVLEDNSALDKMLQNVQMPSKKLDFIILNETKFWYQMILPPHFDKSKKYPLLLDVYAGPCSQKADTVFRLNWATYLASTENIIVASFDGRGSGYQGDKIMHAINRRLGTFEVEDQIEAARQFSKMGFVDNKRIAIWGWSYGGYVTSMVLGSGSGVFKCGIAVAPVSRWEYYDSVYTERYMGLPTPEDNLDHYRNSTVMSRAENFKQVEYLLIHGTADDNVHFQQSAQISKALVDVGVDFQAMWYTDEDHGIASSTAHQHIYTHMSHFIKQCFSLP

Turning to `COc1cc2c(cc1OC)[C@@]1(c3ccc(C(F)(F)F)cc3)[C@@H](C(=O)O)SCC(=O)N1CC2` (relative stereo) [4f], half-maximal inhibition (IC50) required 15.9 µM.
On to `COc1cc2c(cc1OC)[C@@]1(c3ccc(F)cc3)[C@@H](C(=O)O)SCC(=O)N1CC2` (relative stereo) [4g], for which the IC50 came to 0.35 µM.
Turning to `COc1cc2c(cc1OC)C1C(C(=O)O)SCC(=O)N1CC2` (stereo not drawn) [4a], the IC50 was determined as 41.1 µM.

For the origin of these results see article PMC11545999, “Angular-Substituted [1,4]Thiazino[3,4-a]Isoquinolines: Biological Evaluation and In Silico Studies on DPP-IV Inhibition” (International Journal of Molecular Sciences, 2024).
